Data published in PubChem BioAssay AID1845196 (Molecular Pharmacology Branch, DTP, NCI, 2023).

Test system: 292921-168-R tumor spheroid viability
Assay: Anticancer human tumor 292921-168-R patient-derived pancreatic carcinoma cell line growth inhibition
Settings: spheroids with HUVEC and MSC; for IC50: curve of first compound; for viability, T/C: stronger effect = lower value
Summary of the method: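 Complex spheroids of malignant cells with endothelial cells and mesenchymal stem cells; agents alone or combined, from near clinical Cmax (or 10 microM if unknown) down in half-log steps, 0.25% DMSO final.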

[1] = second compound 0.003 µM, first compound 0.0316 µM
[2] = second compound 0.003 µM, first compound 0.1 µM
[3] = second compound 0.003 µM, first compound 0.316 µM
[4] = second compound 0.003 µM, first compound 1 µM
[5] = second compound 0.003 µM, first compound 3.16 µM
[6] = second compound 0.003 µM, first compound 10 µM
[7] = second compound 0.00949 µM, first compound 0.0316 µM
[8] = second compound 0.00949 µM, first compound 0.1 µM
[9] = second compound 0.00949 µM, first compound 0.316 µM
[10] = second compound 0.00949 µM, first compound 1 µM
[11] = second compound 0.00949 µM, first compound 3.16 µM
[12] = second compound 0.00949 µM, first compound 10 µM
[13] = second compound 0.03 µM, first compound 0.0316 µM
[14] = second compound 0.03 µM, first compound 0.1 µM
[15] = second compound 0.03 µM, first compound 0.316 µM
[16] = second compound 0.03 µM, first compound 1 µM
[17] = second compound 0.03 µM, first compound 3.16 µM
[18] = second compound 0.03 µM, first compound 10 µM
[19] = second compound 0.0949 µM, first compound 0.0316 µM
[20] = second compound 0.0949 µM, first compound 0.1 µM
[21] = second compound 0.0949 µM, first compound 0.316 µM
[22] = second compound 0.0949 µM, first compound 1 µM
[23] = second compound 0.0949 µM, first compound 3.16 µM
[24] = second compound 0.0949 µM, first compound 10 µM
[25] = second compound 0.3 µM, first compound 0.0316 µM
[26] = second compound 0.3 µM, first compound 0.1 µM
[27] = second compound 0.3 µM, first compound 0.316 µM
[28] = second compound 0.3 µM, first compound 1 µM
[29] = second compound 0.3 µM, first compound 3.16 µM
[30] = second compound 0.3 µM, first compound 10 µM
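Further: spheroids exposed to compounds for 7 days.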

`[2H]c1nc(C)nc([2H])c1-c1cc(NC[C@@H](C)c2cccc3c(C(=O)NC)ccnc23)ncn1` + CC[C@@]1(O)C(=O)OCc2c1cc1n(c2=O)Cc2cc3c(CN(C)C)c(O)ccc3nc2-1 gave an IC50 (second compound 0.003 µM) of over 10000 nM, an IC50 (second compound 0.00949 µM) of over 10000 nM and an IC50 (second compound 0.03 µM) of under 31.6 nM. It also gave an IC50 (second compound 0.0949 µM) of under 31.6 nM, an IC50 (second compound 0.3 µM) of under 31.6 nM and a viability, T/C [1] of 101%. It also gave a viability, T/C [2] of 87.8%, a viability, T/C [3] of 96.9% and a viability, T/C [4] of 102%. For the same compound, the viability, T/C [5] was 93.8%, the viability, T/C [6] was 86.9% and the viability, T/C [7] was 83.3%. For the same compound, the viability, T/C [8] was 81%, the viability, T/C [9] was 77.7% and the viability, T/C [10] was 76.9%. It also gave a viability, T/C [11] of 79.8%, a viability, T/C [12] of 70.9% and a viability, T/C [13] of 49.2%. The viability, T/C [14] was 35.9%, the viability, T/C [15] was 41.5% and the viability, T/C [16] was 37.4%. The viability, T/C [17] was 37.4%, the viability, T/C [18] was 23% and the viability, T/C [19] was 12.1%. For the same compound, the viability, T/C [20] was 13.4%, the viability, T/C [21] was 12.2% and the viability, T/C [22] was 12.6%. The viability, T/C [23] was 9.08%, the viability, T/C [24] was 8.57% and the viability, T/C [25] was 3.57%. It also gave a viability, T/C [26] of 4.5%, a viability, T/C [27] of 3.67% and a viability, T/C [28] of 3.37%. The viability, T/C [29] was 3.59% and the viability, T/C [30] was 2.83%.
With `CC(C)n1c(=O)n(C)c2cnc3cc(F)c(-c4ccc(OCCCN5CCCCC5)nc4)cc3c21` + CC[C@@]1(O)C(=O)OCc2c1cc1n(c2=O)Cc2cc3c(CN(C)C)c(O)ccc3nc2-1 the IC50 (second compound 0.003 µM) was under 31.6 nM, the IC50 (second compound 0.00949 µM) was under 31.6 nM and the IC50 (second compound 0.03 µM) was under 31.6 nM. The IC50 (second compound 0.0949 µM) was under 31.6 nM, the IC50 (second compound 0.3 µM) was under 31.6 nM and the viability, T/C [1] was 45.7%. The viability, T/C [2] was 42.4%, the viability, T/C [3] was 44.9% and the viability, T/C [4] was 42.3%. It also gave a viability, T/C [5] of 41.4%, a viability, T/C [6] of 20.4% and a viability, T/C [7] of 25.4%. It also gave a viability, T/C [8] of 23.7%, a viability, T/C [9] of 22.3% and a viability, T/C [10] of 25.2%. For the same compound, the viability, T/C [11] was 24.4%, the viability, T/C [12] was 18.7% and the viability, T/C [13] was 20.2%. It also gave a viability, T/C [14] of 22.4%, a viability, T/C [15] of 20.4% and a viability, T/C [16] of 20.4%. The viability, T/C [17] was 23.2%, the viability, T/C [18] was 16.7% and the viability, T/C [19] was 13.2%. For the same compound, the viability, T/C [20] was 14.7%, the viability, T/C [21] was 13.7% and the viability, T/C [22] was 14.8%. For the same compound, the viability, T/C [23] was 16.8%, the viability, T/C [24] was 14.8% and the viability, T/C [25] was 4.72%. It also gave a viability, T/C [26] of 4.71%, a viability, T/C [27] of 5.4% and a viability, T/C [28] of 6.25%. The viability, T/C [29] was 8.92% and the viability, T/C [30] was 10.4%.
In the case of `Cc1sc2c(c1C)C(c1ccc(Cl)cc1)=NC(CC(=O)Nc1ccc(O)cc1)c1nnc(C)n1-2` (stereo not given) + CC[C@@]1(O)C(=O)OCc2c1cc1n(c2=O)Cc2cc3c(CN(C)C)c(O)ccc3nc2-1, the IC50 (second compound 0.003 µM) is reported as 389 nM, the IC50 (second compound 0.00949 µM) is reported as 449 nM and the IC50 (second compound 0.03 µM) is reported as under 9.49 nM. For the same compound, the IC50 (second compound 0.0949 µM) was under 9.49 nM, the IC50 (second compound 0.3 µM) was under 9.49 nM and the viability, T/C (second compound 0.003 µM, first compound 0.00949 µM) was 92.5%. It also gave a viability, T/C (second compound 0.003 µM, first compound 0.03 µM) of 67.6%, a viability, T/C (second compound 0.003 µM, first compound 0.0949 µM) of 62% and a viability, T/C (second compound 0.003 µM, first compound 0.3 µM) of 57.6%. It also gave a viability, T/C (second compound 0.003 µM, first compound 0.949 µM) of 44.1%, a viability, T/C (second compound 0.003 µM, first compound 3 µM) of 28.5% and a viability, T/C (second compound 0.00949 µM, first compound 0.00949 µM) of 81.1%. The viability, T/C (second compound 0.00949 µM, first compound 0.03 µM) was 67.4%, the viability, T/C (second compound 0.00949 µM, first compound 0.0949 µM) was 63.8% and the viability, T/C (second compound 0.00949 µM, first compound 0.3 µM) was 56.3%. It also gave a viability, T/C (second compound 0.00949 µM, first compound 0.949 µM) of 43.5%, a viability, T/C (second compound 0.00949 µM, first compound 3 µM) of 21.6% and a viability, T/C (second compound 0.03 µM, first compound 0.00949 µM) of 31.5%. The viability, T/C (second compound 0.03 µM, first compound 0.03 µM) was 31.4%, the viability, T/C (second compound 0.03 µM, first compound 0.0949 µM) was 29.6% and the viability, T/C (second compound 0.03 µM, first compound 0.3 µM) was 25%. It also gave a viability, T/C (second compound 0.03 µM, first compound 0.949 µM) of 13.8%, a viability, T/C (second compound 0.03 µM, first compound 3 µM) of 2.79% and a viability, T/C (second compound 0.0949 µM, first compound 0.00949 µM) of 9.7%. It also gave a viability, T/C (second compound 0.0949 µM, first compound 0.03 µM) of 8.41%, a viability, T/C (second compound 0.0949 µM, first compound 0.0949 µM) of 6.38% and a viability, T/C (second compound 0.0949 µM, first compound 0.3 µM) of 3.78%. The viability, T/C (second compound 0.0949 µM, first compound 0.949 µM) was 1.73%, the viability, T/C (second compound 0.0949 µM, first compound 3 µM) was 1.06% and the viability, T/C (second compound 0.3 µM, first compound 0.00949 µM) was 4.29%. For the same compound, the viability, T/C (second compound 0.3 µM, first compound 0.03 µM) was 3.58%, the viability, T/C (second compound 0.3 µM, first compound 0.0949 µM) was 3.16% and the viability, T/C (second compound 0.3 µM, first compound 0.3 µM) was 1.72%. The viability, T/C (second compound 0.3 µM, first compound 0.949 µM) was 0.92% and the viability, T/C (second compound 0.3 µM, first compound 3 µM) was 0.66%.
